Legend:
B16F10 melanoma tumors = assay: Treatment of B16F10 melanoma tumors; assay type: in vivo, mice; details: single injection of high-dose cGAMP-S (40 μg) and EP
Procedure: 2×10^5 4 T1 or 2×10^5 B16F10 cells were subcutaneously injected to the right rear flank of BALB/c mice or C57BL/6 female mice respectively. For orthotopic 4T1 model, 2×10^5 4 T1 cells were injected into the mammary fat pad. Seven days after tumor injection, B16F10 tumor-bearing mice were divided into 6 experimental groups (n=8 for each group): untreated, 1×empty microdevices(EP), 1×cGAMP-S plus EPs, 1×collagen gel, 4×cGAMP-S, and 1×cGAMP-S plus cGAMP-MPs, respectively (FIG. 3D). For the 4×cGAMP-S group, mice were intratumorally administered with 10 μg of cGAMP in 50 μL MC solution (cGAMP-S) at days 0, 4, 8, and 11 to replicate the four doses of soluble cGAMP. The overall does of cGAMP were 40 μg per mouse throughout the treatment period. […] Tumor size was measured every other day starting at day 7 post tumor inoculation with a digital caliper. Tumor volume was calculated using the following formula: length (mm)×width^2 (mm)×0.5. […]
Mice bearing B16F10 tumors were treated with the following 4 experimental groups (n=8): untreated, 1×EPs, 3×cGAMP-S, and 1×cGAMP-S plus cGAMP-MPs, respectively (FIG. 4A). […] The protein content in the supernatant was quantified using a bicinchoninic acid protein assay kit (Thermo Fisher Scientific, MA, USA). […]

[1] = system: phosphorylated-IRF3 (p-IRF3); assay: Western blot of B16F10 tumors; assay type: in vivo, mice; details: tumors at day 16; cGAMP-MPs single injection, cGAMP-S three injections
Procedure: (§1) Mice bearing B16F10 tumors were treated with the following 4 experimental groups (n=8): untreated, 1×EPs, 3×cGAMP-S, and 1×cGAMP-S plus cGAMP-MPs, respectively (FIG. 4A). Tumors were collected at day 16 post tumor inoculation and cut into 50-100 mg small pieces in a 1.5 mL microcentrifuge tube. The tumors were lysed in radioimmunoprecipitation assay (RIPA) buffer (Sigma-Aldrich), homogenized, and centrifuged at 20130 rcf for 10 min. The protein content in the supernatant was quantified using a bicinchoninic acid protein assay kit (Thermo Fisher Scientific, MA, USA). Equal amounts of proteins (20 μg) were separated on a 4 to 15% gradient SDS-polyacrylamide gel (Bio-Rad, Hercules, CA) and electro-transferred to nitrocellulose membrane. The membranes were then blocked with 5% milk in tris-buffered saline supplemented with 0.05% Tween 20 and further incubated with GAPDH monoclonal antibody (Invitrogen, CA, cat. no. MA5-27912), phospho-TBK1/NAK (Ser172) (D52C2) Rabbit mAb (Cell Signaling Technology, cat. no. 5483S), or phospho-IRF-3 (S396) Rabbit mAb (Cell Signaling Technology, cat. no. 4947S) at 4° C. overnight. The membranes were then incubated with goat anti-rabbit IgG (H+L) Secondary Antibody, HRP (Invitrogen, cat. no. TG266717) for 1 h at room temperature. Protein bands were visualized by chemiluminescence using the ECL Western Blotting Substrate (Thermo Fisher Scientific, MA).

[2] = system: phosphorylated-TBK1 (p-TBK1); assay: Western blot of B16F10 tumors; assay type: in vivo, mice; details: tumors at day 16; cGAMP-MPs single injection, cGAMP-S three injections
Procedure: as §1

B16F10 tumor recurrence = assay: Treatment of surgically removed B16F10 tumor and re-challenge; assay type: in vivo, mice
From the text: 2×10^5 B16F10 cells were subcutaneously injected to the right rear flank of C57BL/6 female mice. Six days after tumor inoculation, B16F10 tumor-bearing mice were randomly divided into 4 experimental groups (n=8 for each group): untreated, 1×cGAMP-S plus EPs, 3×cGAMP-S, and 1×cGAMP-S plus cGAMP-MPs, respectively. ˜99% of tumor volume was surgically removed, leaving ˜1% residual tumor to mimic residual microtumors. Upon the removal of tumors, cGAMP-MPs (10m of cGAMP-S, 5 PLGA-1 microdevices containing 10 μg of cGAMP, and 5 PLGA-2 microdevices containing 10 μg of cGAMP) or 1×cGAMP-S plus EPs (10m of cGAMP-S, 5 each of empty PLGA-1 and PLGA-2 microdevices) in 50 μL MC solution were directly applied to the surgical bed through a micropipette. For 3×cGAMP-S treated group, 10 μg of cGAMP-S was applied to the surgical bed after surgery followed by intratumoral injections of 10 μg of cGAMP at days 4 and 8 post-surgery (FIG. 6A). The wound was closed by an autoclip wound clip system. Tumor size was measured with a digital caliper every other day starting at day 7 post tumor inoculation. For the re-challenge experiment, 2×10^5 B16F10 cells were subcutaneously injected to the left rear flank of treated mice with complete responses. Tumor size was measured every other day with a digital caliper.

[3] = system: KPC pancreatic cancer cells; assay: Treatment of orthotopic pancreatic tumor model; assay type: in vivo, mice; details: 25 days; cGAMP-MPs three doses at days 0, 4, 8; cGAMP-S single high dose (30 μg) with EPs
Procedure: A small incision was made to exteriorize the spleen and pancreas of C57BL/6 female mice. 5×10^5 KPC cells in 50 μL of PBS and Matrigel (1:1 mixture by volume) were injected into the tail of the pancreas. cGAMP-MPs (10 μg of cGAMP-S, 5 PLGA-1 microdevices containing 10 μg of cGAMP and 5 PLGA-2 microdevices containing 10 μg of cGAMP) or 1×cGAMP-S plus EPs (30m of cGAMP-S, 5 each of empty PLGA-1 and PLGA-2 microdevices) in 50 μL MC solution were also injected into the tail of the pancreas. The wound was then closed by an autoclip wound clip system. Mice were euthanized 25 days after tumor inoculation. The tumors were isolated and weighted by a balance. Metastasis to lungs was evaluated by H&E staining of lung sections.

[4] = system: ecto-nucleotide pyrophosphatase/phosphodiesterase 1 (ENPP1); details: versus naturally produced 2′3′-cGAMP; Kato K. et al.; cited from earlier work

## Nc1nc2c(ncn2[C@@H]2O[C@@H]3COP(=O)(O)O[C@H]4[C@@H](O)[C@H](n5cnc6c(N)ncnc65)O[C@@H]4COP(=O)(O)O[C@H]3[C@H]2O)c(=O)[nH]1 [cGAMP-S, 3′3′-cGAMP]
B16F10 melanoma tumors
  tumor growth: exhibited an antitumor effect at early time points but failed to achieve sustained tumor inhibition
B16F10 melanoma tumors; untreated 21 days
  survival time: 25 days
[1]
  expression of p-IRF3: high expression levels
[2]
  expression of p-TBK1: high expression levels
B16F10 tumor recurrence; cGAMP-MPs single application, cGAMP-S three doses, untreated 100%
  tumor recurrence rate: 25%
B16F10 tumor recurrence; single dose of cGAMP-S plus EPs
  tumor recurrence rate: 87.5%
B16F10 tumor recurrence; tumor-free mice re-challenged with B16F10 cells
  survival after re-challenge: prolonged survival time
B16F10 tumor recurrence; tumor-free mice re-challenged with B16F10 cells at day 60
  tumor growth after re-challenge versus naïve mice: significantly slower
[3]
  metastasis to lungs: did not show benefits
  primary tumor growth in the pancreas: did not show benefits
[4]
  stability against ENPP1: enhanced stability
